Data taken from article PMC4226669, “Anti-cancer potency of tasquinimod is enhanced via albumin-binding facilitating increased uptake in the tumor microenvironment” (Oncotarget, 2014).

How the values were obtained:
bovine albumin = biological target: T1, bovine albumin (Bos taurus, UniProt P02769); assay: Equilibrium dialysis binding to bovine albumin; settings: pH 7.4, equilibrium dialysis, read-out: equilibrium dissociation constant (Kd)
T1 construct: purchased Sigma
Protocol: (§1) To determine whether albumin is the tasquinimod binding protein in plasma, albumin was removed from human plasma using an albumin depletion kit (Thermo Scientific cat # 85160). The albumin depleted plasma was then tested for its protein binding as described above. The dissociation constant (kd) for tasquinimod binding was determined based upon equilibrium dialysis of a mixture of 4mg/ml of the species (i.e., human, bovine, and mouse) specific albumin obtained from Sigma with 2μM of ^14C-labeled tasquinimod in PBS pH 7.4 buffer using a 96-well equilibrium dialyzer™ (Harvard Apparatus, Holliston,MA).

[1] = test system: CWR-22Rv1 human prostate cancer xenografts; assay: Dose-response growth inhibition of established CWR-22Rv1 xenografts (subcutaneous daily injection); assay type: in vivo, mouse; settings: 20 days
Protocol: To confirm these in vitro results, mice were inoculated subcutaneously (SQ) with CWR-22Rv1 cells and remained untreated until the tumors grew to ~ 200 mm3 (i.e., ~ 200 mgs) and then they were randomly assigned to groups (n=10) which were injected SQ daily with 100 μl of propylene glycol vehicle only vs. vehicle delivering 0.1 or 1 mg/kg/day of either tasquinimod or its carboxamide-N-demethylated metabolite. Propylene glycol was used as vehicle due to the low water solubility of the carboxamide-N-demethylated metabolite. After 20 days of continuous treatment, the experiment was terminated and the total weight of each cancer determined and the results expressed both as average tumor weight in grams and as the ratio of the weight of the cancers in the treated vs. vehicle control animals (i.e., T/C ratio), Figure 5A.
The source, history, and characteristics of the human prostate cancer cell lines (i.e., LNCaP, LAPC4, and CWR-22Rv1 and the human umbilical vascular endothelial cells (HUVEC) used, as well as cell culture conditions for their in vitro maintenance and the in vivo protocol for their xenografting into immune-deficient nude male mice are as described previously. The source, history, and characteristics of the TRAMP-C2 mouse prostate cancer line, as well as cell culture conditions for their in vitro maintenance and the in vivo protocol for their growth in intact adult male syngeneic C57Bl/6J are as described previously. All lines were mycoplasma negative using the MycoSensor PCR Assay kit (Agilent Technologies) and genetically authenticated within the last 6 months using short tandem repeat profiling conducted by the Johns Hopkins Genetic Resource Core Facility. The source, history, and characteristics of the CWR-RH human prostate cancer xenograft are as described previously. In vitro growth curves were determined as described. Animal studies were conducted according to animal protocol MO09M434 approved by Johns Hopkins Animal Care and Use Committee. Daily drug dosing via oral gavage, the drinking water, or subcutaneous injection, as well as tumor volume measurements and determination of the blood vessel density within cancers, were as described previously. These experiments were repeated at 3 independent times for each xenograft.

[2] = test system: human umbilical vein endothelial cells (HUVECs); assay: 3D in vitro endothelial sprouting and tube formation assay; assay type: cell-based
From the text: A three-dimensional (3D) in vitro endothelial sprouting and tube formation assay was utilized to define the anti-angiogenic potency of tasquinimod vs. these metabolites. In this 3D assay, human umbilical endothelial cells (i.e., HUVECs) are initially grown on microcarrier beads and the cell coated beads embedded in fibrin gels with media conditioned by normal human lung fibroblasts. Under these 3D-conditions, endothelial cells “sprout” producing 3D neovessel tubes with patent lumen within one week, Figure 4A - left panel. When tasquinimod is added at the initiation to these 3D-cultures, sprouting of the endothelial cells is inhibited, Figure 4B-right panel, with the potency for such inhibition, expressed as an IC50 value (i.e., the concentration of drug which inhibits by 50% the endothelial sprouting) of 0.5 μM, Figure 4C. […] Using this 3D-HUVEC assay, the potency (i.e., expressed as IC50) of tasquinimod metabolites to inhibit endothelial sprouting was compared to tasquinimod. […] To further confirm that tasquinimod itself and not the carboxamide-N-demethylated metabolite is the active drug, the response to ketoconazole alone and in combination with tasquinimod was tested in the 3D-endothelial sprouting assay.
The 3-dimensional (3D) in vitro angiogenic sprouting and tube formation assay was used as described previously. This 3D-endothelial sprouting assay was conducted using a minimum of 5 replicate wells per drug dose per experiment, repeated 3 independent times using human umbilical vein endothelial cells (HUVECs; Lonza Walkersville, Inc.) with modification that 20 μL of 10X concentrated Dulbecco's Modified Eagle's Media/10%FCS media conditioned by confluent human primary lung fibroblasts (Lonza) diluted to 200 μL of growth factor supplemented EGM-2 media (Lonza) was used instead of fibroblast co-culture.

mouse albumin = biological target: T2, mouse albumin (Mus musculus, UniProt P07724); assay: Equilibrium dialysis binding to mouse albumin; settings: pH 7.4, equilibrium dialysis, read-out: equilibrium dissociation constant (Kd)
T2 construct: purchased Sigma
T2 sequence (P07724 25-608): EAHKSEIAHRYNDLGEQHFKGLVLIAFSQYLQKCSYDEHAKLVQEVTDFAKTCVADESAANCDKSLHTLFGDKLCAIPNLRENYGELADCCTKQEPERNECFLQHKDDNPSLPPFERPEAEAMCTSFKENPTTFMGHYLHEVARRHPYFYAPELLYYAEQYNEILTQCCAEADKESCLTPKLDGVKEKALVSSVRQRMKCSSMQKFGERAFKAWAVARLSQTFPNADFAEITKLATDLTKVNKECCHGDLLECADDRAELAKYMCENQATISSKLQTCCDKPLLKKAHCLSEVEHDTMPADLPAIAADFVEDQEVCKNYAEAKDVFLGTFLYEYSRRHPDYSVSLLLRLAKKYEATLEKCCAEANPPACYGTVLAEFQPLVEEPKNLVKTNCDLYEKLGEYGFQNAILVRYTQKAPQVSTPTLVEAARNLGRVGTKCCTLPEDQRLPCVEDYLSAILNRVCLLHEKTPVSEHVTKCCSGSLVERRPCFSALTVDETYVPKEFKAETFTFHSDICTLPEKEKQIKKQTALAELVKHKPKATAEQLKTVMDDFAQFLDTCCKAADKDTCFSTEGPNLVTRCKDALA
Protocol: as §1

T1 sequence (P02769 25-607): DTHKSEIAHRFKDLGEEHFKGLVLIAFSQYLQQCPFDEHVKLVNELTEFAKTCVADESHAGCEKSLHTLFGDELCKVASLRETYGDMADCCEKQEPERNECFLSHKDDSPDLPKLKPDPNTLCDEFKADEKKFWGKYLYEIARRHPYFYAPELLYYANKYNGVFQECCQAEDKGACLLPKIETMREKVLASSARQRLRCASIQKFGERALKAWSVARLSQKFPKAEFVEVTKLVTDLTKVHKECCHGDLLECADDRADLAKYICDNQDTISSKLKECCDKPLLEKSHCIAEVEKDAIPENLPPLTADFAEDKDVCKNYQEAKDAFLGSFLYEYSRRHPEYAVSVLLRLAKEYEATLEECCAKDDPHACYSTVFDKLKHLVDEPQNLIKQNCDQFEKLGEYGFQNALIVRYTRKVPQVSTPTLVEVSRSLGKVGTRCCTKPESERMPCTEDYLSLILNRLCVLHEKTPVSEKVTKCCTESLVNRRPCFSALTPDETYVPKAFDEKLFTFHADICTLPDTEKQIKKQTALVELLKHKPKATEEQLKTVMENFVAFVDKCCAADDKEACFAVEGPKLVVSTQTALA

COc1cccc2c1c(O)c(C(=O)N(C)c1ccc(C(F)(F)F)cc1)c(=O)n2C [Tasquinimod]
Kd (bovine albumin): 31 ± 6 µM | Avg Tumor Weight ([1]; 0.1 mg/kg/day SQ): 0.855 ± 0.203 g | T/C Ratio ([1]; 0.1 mg/kg/day SQ): 0.491 | Avg Tumor Weight ([1]; 1 mg/kg/day SQ): 0.668 ± 0.166 g | T/C Ratio ([1]; 1 mg/kg/day SQ): 0.383 | potency on an equal dose basis vs carboxamide-N-demethylated metabolite ([1]; 0.1 or 1 mg/kg/day SQ): equipotent | sprouting of HUVEC cells in 3-D culture ([2]; 1μM, 5 days co-treatment with conditioned media from fibroblasts): Lack of sprouting | IC50 ([2]; Homo sapiens, HUVEC, 3D-HUVEC sprouting assay, read-out: IC50 (concentration of drug which inhibits by 50% the endothelial sprouting)): ~0.5 µM | Kd (mouse albumin): 16 ± 3 µM
